{
  "source": "patent US12702660B2",
  "about": "“Method for treating cancer with an oral dosage form of an estrogen receptor-alpha inhibitor” (Eisai R&D Management Co., Ltd., priority 2019, dated 2026)",
  "test_system": "locally advanced or metastatic ER+HER2−BC",
  "assay": "Tumor response and progression-free survival, phase 1 dose escalation",
  "type": "in vivo, human",
  "text": "Example 3 reports Clinical and Genomics Analysis of a single trial. The Study Population in Example 3 was as follows: • Women ≥18 years old with locally advanced or metastatic ER+HER2−BC. • Progression on at least one hormonal therapy and at least one additional therapy/regimen; no maximum number of prior lines of therapy. • ECOG performance status of 0 or 1. • Adequate bone marrow and organ function. • Excluded if had bone-only disease or inflammatory BC.\nMethods were used to analyze whether H3B-6545 inactivates both wild-type and mutant ERα by targeting cysteine 530 and enforcing a unique antagonist conformation. Methods: Women with locally advanced or metastatic HR+BC are treated (tx) with H3B-6545 drug product administered once daily orally by capsule over a 28 day cycle after progression on at least one hormonal therapy and at least one additional therapy/regimen. Dose escalation uses a 3+3 design with the option to backfill previously cleared doses and allows for intrapatient dose escalation. This example explored the safety, pharmacokinetics and pharmacodynamics of H3B-6545 in women with HR+BC to identify a recommended subsequent dose for testing.\n• H3B-6545 administered once daily orally over a 28 day cycle. • Dose escalation using a standard 3+3 study design using dose cohorts of 100, 200, 300, 450, and 600 mg QD. • Patients allowed to backfill previously cleared doses. • Intra-patient dose escalation allowed after completion of Cycle 3. Results (as of Apr. 20, 2019) Patient Population: • 46 patients were treated with H3B-6545 at doses of 100 to 600 mg QD. • 42 (91.3%) patients received a prior CDK4/6 inhibitor and 32 (69.6%) prior fulvestrant. • 30 (65.2%) patients received ≥3 prior anti-cancer therapy lines in the advanced/metastatic setting.",
  "key": {"[1]": {"conditions": "Total (N = 46), 100 to 600 mg QD"}, "[2]": {"conditions": "as of Apr. 20, 2019, 46 patients, 100 to 600 mg QD"}},
  "data": [
    {"smiles": "CN(C)C(=O)/C=C/CNCCOc1ccc(/C(=C(/CC(F)(F)F)c2ccccc2)c2ccc3[nH]nc(F)c3c2)cn1", "note": "[H3B-6545, (E)-N,N-dimethyl-4-[2-[5-[(Z)-4,4,4-trifluoro-1-(3-fluoro-1H-indazol-5-yl)-2-phenylbut-1-enyl]pyridin-2-yl]oxyethylamino]but-2-enamide]", "values": [
      {"measurement": "Best Overall Response: Complete Response (CR)", "setting": "100 mg QD (N = 6)", "result": "0 (0.0) n (%)"},
      {"measurement": "Best Overall Response: Not Evaluable (NE)", "setting": "100 mg QD (N = 6)", "result": "0 (0.0) n (%)"},
      {"measurement": "Best Overall Response: Partial Response (PR)", "setting": "100 mg QD (N = 6)", "result": "1 (16.7) n (%)"},
      {"measurement": "Best Overall Response: Progressive Disease (PD)", "setting": "100 mg QD (N = 6)", "result": "0 (0.0) n (%)"},
      {"measurement": "Best Overall Response: Unknown (UNK)", "setting": "100 mg QD (N = 6)", "result": "0 (0.0) n (%)"},
      {"measurement": "Objective Responses (CR + PR)", "setting": "100 mg QD (N = 6)", "result": "1 (16.7) n(%)"},
      {"measurement": "Progressive-Free Survival, Median (95% CI)", "setting": "100 mg QD (N = 6)", "result": "9.3 (7.4, NE) months"},
      {"measurement": "Progressive-Free Survival, Q1 (95% CI)", "setting": "100 mg QD (N = 6)", "result": "7.5 (7.4, 11.0) months"},
      {"measurement": "Best Overall Response: Complete Response (CR)", "setting": "200 mg QD (N = 12)", "result": "0 (0.0) n (%)"},
      {"measurement": "Best Overall Response: Not Evaluable (NE)", "setting": "200 mg QD (N = 12)", "result": "4 (33.3) n (%)"},
      {"measurement": "Best Overall Response: Partial Response (PR)", "setting": "200 mg QD (N = 12)", "result": "1 (8.3) n (%)"},
      {"measurement": "Best Overall Response: Progressive Disease (PD)", "setting": "200 mg QD (N = 12)", "result": "2 (16.7) n (%)"},
      {"measurement": "Best Overall Response: Unknown (UNK)", "setting": "200 mg QD (N = 12)", "result": "1 (8.3) n (%)"},
      {"measurement": "Objective Responses (CR + PR)", "setting": "200 mg QD (N = 12)", "result": "1 (8.3) n(%)"},
      {"measurement": "Progressive-Free Survival, Median (95% CI)", "setting": "200 mg QD (N = 12)", "result": "5.5 (0.9, NE) months"},
      {"measurement": "Progressive-Free Survival, Q1 (95% CI)", "setting": "200 mg QD (N = 12)", "result": "1.5 (0.9, 5.5) months"},
      {"measurement": "Best Overall Response: Complete Response (CR)", "setting": "300 mg QD (N = 11)", "result": "0 (0.0) n (%)"},
      {"measurement": "Best Overall Response: Not Evaluable (NE)", "setting": "300 mg QD (N = 11)", "result": "3 (27.3) n (%)"},
      {"measurement": "Best Overall Response: Partial Response (PR)", "setting": "300 mg QD (N = 11)", "result": "0 (0.0) n (%)"},
      {"measurement": "Best Overall Response: Progressive Disease (PD)", "setting": "300 mg QD (N = 11)", "result": "5 (45.5) n (%)"},
      {"measurement": "Best Overall Response: Unknown (UNK)", "setting": "300 mg QD (N = 11)", "result": "0 (0.0) n (%)"},
      {"measurement": "Objective Responses (CR + PR)", "setting": "300 mg QD (N = 11)", "result": "0 (0.0) n(%)"},
      {"measurement": "Progressive-Free Survival, Median (95% CI)", "setting": "300 mg QD (N = 11)", "result": "1.8 (1.6, 5.4) months"},
      {"measurement": "Progressive-Free Survival, Q1 (95% CI)", "setting": "300 mg QD (N = 11)", "result": "1.8 (1.6, 1.8) months"},
      {"measurement": "Progressive-Free Survival, Q3 (95% CI)", "setting": "300 mg QD (N = 11)", "result": "5.4 (1.8, NE) months"},
      {"measurement": "Best Overall Response: Complete Response (CR)", "setting": "450 mg QD (N = 10)", "result": "0 (0.0) n (%)"},
      {"measurement": "Best Overall Response: Not Evaluable (NE)", "setting": "450 mg QD (N = 10)", "result": "3 (30.0) n (%)"},
      {"measurement": "Best Overall Response: Partial Response (PR)", "setting": "450 mg QD (N = 10)", "result": "1 (10.0) n (%)"},
      {"measurement": "Best Overall Response: Progressive Disease (PD)", "setting": "450 mg QD (N = 10)", "result": "3 (30.0) n (%)"},
      {"measurement": "Best Overall Response: Unknown (UNK)", "setting": "450 mg QD (N = 10)", "result": "0 (0.0) n (%)"},
      {"measurement": "Objective Responses (CR + PR)", "setting": "450 mg QD (N = 10)", "result": "1 (10.0) n(%)"},
      {"measurement": "Progressive-Free Survival, Median (95% CI)", "setting": "450 mg QD (N = 10)", "result": "7.2 (1.8, 7.3) months"},
      {"measurement": "Progressive-Free Survival, Q1 (95% CI)", "setting": "450 mg QD (N = 10)", "result": "1.9 (1.8, 7.2) months"},
      {"measurement": "Progressive-Free Survival, Q3 (95% CI)", "setting": "450 mg QD (N = 10)", "result": "7.3 (2.1, 7.5) months"},
      {"measurement": "Best Overall Response: Complete Response (CR)", "setting": "600 mg QD (N = 7)", "result": "0 (0.0) n (%)"},
      {"measurement": "Best Overall Response: Not Evaluable (NE)", "setting": "600 mg QD (N = 7)", "result": "4 (57.1) n (%)"},
      {"measurement": "Best Overall Response: Partial Response (PR)", "setting": "600 mg QD (N = 7)", "result": "0 (0.0) n (%)"},
      {"measurement": "Best Overall Response: Progressive Disease (PD)", "setting": "600 mg QD (N = 7)", "result": "1 (14.3) n (%)"},
      {"measurement": "Best Overall Response: Unknown (UNK)", "setting": "600 mg QD (N = 7)", "result": "0 (0.0) n (%)"},
      {"measurement": "Objective Responses (CR + PR)", "setting": "600 mg QD (N = 7)", "result": "0 (0.0) n(%)"},
      {"measurement": "Best Overall Response: Complete Response (CR)", "setting": "[1]", "result": "0 (0.0) n (%)"},
      {"measurement": "Best Overall Response: Not Evaluable (NE)", "setting": "[1]", "result": "14 (30.4) n (%)"},
      {"measurement": "Best Overall Response: Partial Response (PR)", "setting": "[1]", "result": "3 (6.5) n (%)"},
      {"measurement": "Best Overall Response: Progressive Disease (PD)", "setting": "[1]", "result": "11 (23.9) n (%)"},
      {"measurement": "Best Overall Response: Unknown (UNK)", "setting": "[1]", "result": "1 (2.2) n (%)"},
      {"measurement": "Objective Responses (CR + PR)", "setting": "[1]", "result": "3 (6.5) n(%)"},
      {"measurement": "Progressive-Free Survival, Median (95% CI)", "setting": "[1]", "result": "7.2 (1.9, 7.4) months"},
      {"measurement": "Progressive-Free Survival, Q1 (95% CI)", "setting": "[1]", "result": "1.8 (1.6, 2.1) months"},
      {"measurement": "Progressive-Free Survival, Q3 (95% CI)", "setting": "[1]", "result": "7.5 (7.3, NE) months"},
      {"measurement": "Stable disease, patients", "setting": "as of 10 Dec. 2018, 32 patients, 100 to 450 mg/day", "result": 15, "unit": "patients"},
      {"measurement": "At least 6 months of therapy completed, % of patients", "setting": "[2]", "result": 30.4, "unit": "%"},
      {"measurement": "At least 6 months of therapy completed, patients", "setting": "[2]", "result": 14, "unit": "patients"},
      {"measurement": "Confirmed partial response, % of patients", "setting": "[2]", "result": 6.5, "unit": "%"},
      {"measurement": "Confirmed partial response, patients", "setting": "[2]", "result": 3, "unit": "patients"},
      {"measurement": "Stable disease, % of patients", "setting": "[2]", "result": 37.0, "unit": "%"},
      {"measurement": "Stable disease, patients", "setting": "[2]", "result": 17, "unit": "patients"},
      {"measurement": "mPFS", "setting": "heavily pre-treated, post CDK4/6i setting, 46 patients", "result": 7.2, "unit": "months"},
      {"measurement": "response of case study patient", "setting": "patient case study, 450 mg QD, after 4 cycles", "result": "partial response"},
      {"measurement": "decrease in the sum of the diameters of all target lesions", "setting": "patient case study, 450 mg QD, baseline to C3D1", "result": "−27.8", "unit": "%"},
      {"measurement": "decrease in the sum of the diameters of all target lesions", "setting": "patient case study, 450 mg QD, baseline to C7D1", "result": "−35.6", "unit": "%"}
    ]}
  ]
}
